This is an account of results in patent US8642040B2, “Methods for promoting myelination, neuronal survival and oligodendrocyte differentiation via administration of Sp35 or TrkA antagonists” (Biogen Idec MA Inc., priority 2006, dated 2014).

Holding throughout (type): cell-based, rat
Assay [1] has as its system DRG-oligodendrocyte co-cultures. Nature of the assay: DRG-oligodendrocyte co-culture myelination, Western blot for MBP and MAG. To be noted: FIG. 7. The text has this:
CNS myelination in the presence of NGF and either an Sp35 antagonist (Sp35-DN) or a TrkA antagonist (TrkA-DN) was examined. 3 week old DRG and oligodendrocyte cocultures (prepared as described in Example 3) were infected with lentiviruses, at an MOI of 2 per cell, expressing either full-length or dominant negative Sp35, full-length or dominant negative Nogo Receptor, full-length or dominant negative Taj, full-length or dominant negative p75, and full-length or dominant negative TrkA. Lentiviruses were prepared as described in Example 3 and as follows. Rat p75 full length (FL-p75, amino acid residues 1-425), p75 dominant negative (DN-p75, amino acid residues 1-275), human TrkA full length (FL-TrkA, amino acid residues 1-796), TrkA dominant negative (DN-TrkA, amino acid residues 1-441), human Taj full length (FL-Taj, amino acid residues 1-417), Taj dominant negative (DN-Taj, amino acid residues 1-192), rat Nogo receptor full length (FL-NgR, amino acid residues 1-473), Nogo receptor dominant negative (DN-NgR, amino acid residues 28-310). DNA sequence was inserted into the NotI and BamHI sites of HRST-IRESeGFP lentivirus vector. Plasmids were transfected into 293 cells to produce lentivirus as described in Rubinson et al. Nat. Genetics 33:401-406 (2003).
Co-culture lysates were examined at 3 weeks and analyzed by Western blot as described previously. The blots were probed with polyclonal antibodies to MAG and to MBP. The myelin proteins MAG and MBP were used as markers for myelination.
The TrkA compound antagonist K525a was also tested in DRG-oligodendrocyte cocultures for its ability to promote myelination.
The myelin proteins MAG and MBP were used to determine whether TrkA was upstream of Sp35 in inhibiting myelination in DRG-oligodendrocyte co-cultures. Oligodendrocyte-DRG co-cultures were prepared as described in Example 3. […]
Fresh media was changed every three days. […] Lysates were subjected to 4-20% SDS-PAGE, and analyzed by Western blotting with an antibody to MBP, MAG and Sp35. […]

Assay [2] deals with Sp35. Put plainly: RT-PCR for Sp35 in purified DRGs with or without NGF. The conditions noted are these: 100 ng/ml NGF for 24 hours; FIG. 9A. How it is done:
RT-PCR for TrkA, Sp35 and GAPDH was performed on purified OPCs, SCs and DRGs in the presence or absence of NGF or BDNF as follows. Cultures of OPCs, SCs and DRGs were prepared as described above. Wells of the tissue culture dishes were treated with either 100 ng/ml of NGF or 100 ng/ml of BDNF for 24 hours prior to mRNA isolation. Cellular mRNA was extracted using the Absolutely RNA miniprep kit (Stratagene). Equal amounts of mRNA were subjected to RT-PCR. The primer sets used for the PCR reactions are as follows: […]

Assay [3] deals with Sp35. Nature of the assay: Sp35 expression in co-cultures, DRG neuronal and oligodendrocyte cultures treated with NGF. How it is done:
Oligodendrocyte—DRG co-cultures were prepared as described previously. Various concentrations of NGF (0, 10, 50 and 100 ng/ml) were added to oligodendrocyte—DRG co-cultures, DRG neuronal cultures and oligodendrocyte cultures. In all cultures expression of Sp35 and phosphorylated TrkA was examined by […] or immuno-histochemical staining.

Assay [4] has as its system Oligodendrocyte/DRG co-cultures. Nature of the assay: Oligodendrocyte/DRG co-culture myelination, MBP immunofluorescence. On the procedure: Enriched populations of oligodendrocytes were grown from Female Long Evans post-natal day 2 (P2) rats. Briefly, the forebrain was dissected out and placed in Hank's buffered salt solution (HBSS) (Invitrogen, Grand Island, N.Y.). The tissue was cut into 1 mm fragments and incubated at 37° C. for 15 min in 0.01% trypsin and 10 μg/ml DNase. Dissociated cells were plated on poly-L-lysine-coated T75 tissue culture flasks and grown at 37° C. for 10 days in DMEM medium with 20% fetal calf serum (Invitrogen). Oligodendrocyte precursors (A2B5+) were collected by shaking the flask overnight at 200 rpm at 37° C., resulting in a 95% pure population. Cultures were maintained in high glucose DMEM medium containing FGF/PDGF (Peprotech) (10 ng/ml) for 1 week.
DRG cultures were prepared as follows. Embryonic dorsal root ganglia (DRG) neurons were grown in vitro as previously described in Mi et al., Nat. Neurosci. 8:745-51 (2005) and Kleitman et al. “Tissue culture methods for the study of myelination.” Culturing Nerve Cells. Banker and Goslin, eds. Cambridge Mass.: MIT Press, 337-377 (1991). Briefly, dorsal root ganglia, dissected from embryonic day 15 (E15) Long Evans rats, were plated on poly-D-lysine (100 μg/ml)-coated cover slips for 2 weeks and grown in Neurobasal medium supplemented with B27 (Invitrogen) in the presence or absence of 100 ng/ml nerve growth factor (BD Biosciences). To remove proliferating glial cells, the cultures were pulsed twice with fluorodeoxyuridine (20 μM) from days 2-6 and from days 8-10.
Oligodendrocyte-DRG co-cultures were prepared as follows. A2B5+ oligodendrocyte progenitor cells and DRG neuron drop cultures were prepared as above. One day after oligodendrocyte progenitors were added to DRG neurons, co-cultures were infected with lentivirus expressing GFP (control), dominant-negative Sp35 or full length Sp35 at 2 MOI per cell. DNA sequences used for lentiviral construction were, mouse Sp35 full length (FL-Sp35, encoding amino acid residues 34-614), Sp35 dominant negative (DN-Sp35, encoding amino acid residues 34-581). DNA sequences were inserted into the NotI and BamHI sites of HRST-IRESeGFP lentivirus vector. Plasmids were transfected into 293FT cells to produce lentivirus as described in Rubinson et al. Nat. Genetics 33:401-406 (2003).
Oligodendrocyte/DRG co-cultures were prepared as described in Example 3. The co-cultures were treated with increasing concentrations of Sp35-Fc or control-Fc for 3 weeks. Monoclonal antibodies against MBP were used to determine MBP protein concentration and for immunofluorescence experiments (Sternberger Monoclonals). […]

Regarding `COC(=O)[C@@]1(O)C[C@H]2O[C@]1(C)n1c3ccccc3c3c4c(c5c6ccccc6n2c5c31)C(=O)NC4` [K525a], the “myelination, as measured by the presence of MBP” value in assay [1] (concentration 1 nM) and in assay [1] (concentration 3 nM) was “promoted myelination” each time.

As to “NGF: Nerve Growth Factor, the TrkA ligand”, the “Sp35 mRNA in DRGs” value in the assay with Sp35 [2] is given as “induction”. The “Sp35 in DRG neurons by immunofluorescence” value with Sp35 [3] (100 ng/ml of NGF, FIG. 10) was “Upregulation”. Further, the “Sp35 expression in oligodendrocyte/DRG cocultures” value in the assay on Sp35 [3] (NGF 0, 10, 50 and 100 ng/ml, FIG. 8) is “increased”. Besides, the “Sp35 expression in cultured oligodendrocytes” value in the assay on Sp35 [3] (NGF 0, 10, 50 and 100 ng/ml, FIG. 9) is “remained constant”. Besides, the myelination in co-culture result in assay [4] (in the presence of NGF) is given as “inhibited”.

B1: Sp35-Fc: extra-cellular portion of human Sp35 (residues 1-532) fused to the hinge and Fc region of human IgG1 (protein)
chain: TGCPPRCECSAQDRAVLCHRKRFVAVPEGIPTETRLLDLGKNRIKTLNQDEFASFPHLEELELNENIVSAVEPGAFNNLFNLRTLGLRSNRLKLIPLGVFTGLSNLTKLDISENKIVILLDYMFQDLYNLKSLEVGDNDLVYISHRAFSGLNSLEQLTLEKCNLTSIPTEALSHLHGLIVLRLRHLNINAIRDYSFKRLYRLKVLEISHWPYLDTMTPNCLYGLNLTSLSITHCNLTAVPYLAVRHLVYLRFLNLSYNPISTIEGSMLHELLRLQEIQLVGGQLAVVEPYAFRGLNYLRVLNVSGNQLTTLEESVFHSVGNLETLILDSNPLACDCRLLWVFRRRWRLNFNRQQPTCATPEFVQGKEFKDFPDVLLPNYFTCRRARIRDRKAQQVFVDEGHTVQFVCRADGDPPPAILWLSPRKHLVSAKSNGRLTVFPDGTLEVRYAQVQDNGTYLCIAANAGGNDSMPAHLHVRSYSPDWPHQPNKTFAFISNQPGE
modifications: left off: a dimerising Fc or GST
notes: extra-cellular portion of human Sp35 (residues 1-532) fused to the hinge and Fc region of human IgG1
Regarding B1, in assay [1] (Sp35-Fc as comparator for K525a), the “myelination, as measured by the presence of MBP” value is “promoted myelination”. The “MBP positive oligodendrocytes and myelin internodes” value in assay [4] (100 ng/ml NGF, 14 days, compared to controls, FIG. 13) is “enhancement”. Further, the “number of MBP+ oligodendrocytes” value in assay [4] (co-culture in the presence of NGF, treated 3 weeks, vs control-Fc, FIG. 5) is “increased”. Further, the “number of MBP+ cells, dependence on concentration” value in assay [4] (increasing concentrations of Sp35-Fc, 3 weeks, NGF present, FIG. 5C) was “increased as the concentration of the Sp35 antagonist increased”.
